Measured values published in patent US7273848B2, “Apolipoprotein A-I agonists and their use to treat dyslipidemic disorders” (priority 1997, dated 2007).
Non-standard residues stand in square brackets, D forms with d. Residues, ends and D or L forms follow the SMILES beside them. No end group written: not given here. 1Nal = N[C@@H](Cc1cccc2ccccc12)C(=O)O; Aib = CC(C)(N)C(=O)O

How the values were obtained:
[1] = Circular dichroism helicity determination; type: physicochemical; settings: percent helicity; for He (%) TFE: 5 μM peptide, 90% vol TFE; for He (%) TFE / He (%) SUVs: 37° C.; for He (%) free: unbound peptide 5 μM in 5 mM phosphate buffer, pH 7.4, 37° C.; for He (%) SUVs: peptide-SUV complexes (20:1 EPC:Chol., Ri=30 and Ri=50); for He (%) mics: peptide-micelle complexes, Ri=100, 37° C.
Summary of the method: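 Far-UV CD (190–260 nm) at 37° C on 5 μM peptide in 5 mM phosphate pH 7.4, free, with EPC:Chol 20:1 SUVs (Ri 30 or 50), lysophosphatidylcholine micelles (Ri 100) or 90% TFE. Spectra converted to molar ellipticity per residue; helicity from 222 nm ellipticity or CONTIN fitting to reference spectra, ±5%.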

[2] = molecular target: T1, LCAT (purified from human plasma) (Homo sapiens, UniProt P04180); experiment: LCAT activation assay; type: biochemical; settings: LCAT activation as compared with native human ApoA-I (= 100%), equivalent masses
T1 construct: from tissue; host or cells: human plasma
T1 sequence (P04180 25-440): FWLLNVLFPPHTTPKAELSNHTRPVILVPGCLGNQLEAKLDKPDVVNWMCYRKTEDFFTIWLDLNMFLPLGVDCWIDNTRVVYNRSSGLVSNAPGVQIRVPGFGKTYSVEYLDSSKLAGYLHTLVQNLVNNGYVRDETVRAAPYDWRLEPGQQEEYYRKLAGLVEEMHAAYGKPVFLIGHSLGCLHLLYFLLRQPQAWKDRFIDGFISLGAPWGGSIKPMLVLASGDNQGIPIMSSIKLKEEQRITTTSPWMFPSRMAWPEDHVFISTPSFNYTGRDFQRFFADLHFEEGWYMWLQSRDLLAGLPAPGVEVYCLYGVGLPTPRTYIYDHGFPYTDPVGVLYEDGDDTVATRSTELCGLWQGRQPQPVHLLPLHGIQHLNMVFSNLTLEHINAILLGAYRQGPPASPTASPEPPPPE
Summary of the method: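 Substrate SUVs of EPC or POPC with 14C-cholesterol (20:1 molar ratio), in 10 mM Tris, 0.14 M NaCl, 1 mM EDTA, pH 7.4, were preincubated with peptide or equal mass of plasma ApoA-I. Reaction started with human plasma LCAT; activation was measured as cholesterol-to-ester conversion relative to ApoA-I (100%).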

| Compound | He (%) TFE [1] [%] | He (%) free [1] [%] | He (%) SUVs [1] [%] | He (%) mics [1] [%] | ACTIVITY (%) LCAT [2] [%] |
| --- | --- | --- | --- | --- | --- |
| CC(C)C[C@H](NC(=O)[C@H](CCCCN)NC(=O)[C@H](CCC(N)=O)NC(=O)[C@H](CCCCN)NC(=O)[C@H](CC(C)C)NC(=O)[C@H](Cc1cccc2ccccc12)NC(=O)[C@H](CCC(=O)O)NC(=O)[C@H](CC(C)C)NC(=O)[C@H](CC(C)C)NC(=O)[C@H](CCC(=O)O)NC(=O)[C@H](CC(N)=O)NC(=O)[C@H](CC(C)C)NC(=O)[C@H](CC(C)C)NC(=O)[C@H](CCC(=O)O)NC(=O)[C@H](CCCNC(=N)N)NC(=O)[C@H](Cc1ccccc1)NC(=O)[C@H](CC(C)C)NC(=O)[C@H](CC(=O)O)NC(=O)[C@H](CC(C)C)NC(=O)[C@@H](NC(=O)[C@@H]1CCCN1)C(C)C)C(=O)N[C@@H](CCCCN)C(=O)O [peptide 1, PVLDLFRELLNELLEZLKQKLK] (H-PVLDLFRELLNELLE[1Nal]LKQKLK-OH) | 69 | 77 | 81 | 85 | 120 |
| CC(C)C[C@H](NC(=O)[C@H](C)NC(=O)[C@H](CCC(=O)O)NC(=O)[C@H](CC(C)C)NC(=O)C(C)(C)NC(=O)[C@H](CCC(=O)O)NC(=O)[C@H](Cc1c[nH]c2ccccc12)NC(=O)[C@H](CC(C)C)NC(=O)[C@H](CC(C)C)NC(=O)[C@H](CCC(=O)O)NC(=O)[C@H](CCCNC(=N)N)NC(=O)[C@H](Cc1ccccc1)NC(=O)[C@H](CC(C)C)NC(=O)[C@H](CC(=O)O)NC(=O)[C@H](CC(C)C)NC(=O)[C@@H](NC(=O)[C@@H]1CCCN1)C(C)C)C(=O)N[C@@H](CCCCN)C(=O)N[C@@H](CCC(N)=O)C(=O)N[C@@H](CCCCN)C(=O)N[C@@H](CC(C)C)C(=O)N[C@@H](CCCCN)C(=O)O [compound 50, PVLDLFRELLWEXLEALKQKLK] (H-PVLDLFRELLWE[Aib]LEALKQKLK-OH) | 76 | 68 | 89 | 84 | 21 |
| GVLELFENLLERLLDALQKKLK [peptide 145] | 58 | 55 | – | 51 | 100 |
| CC(C)C[C@@H](NC(=O)[C@@H](C)NC(=O)[C@@H](CCC(=O)O)NC(=O)[C@@H](CC(C)C)NC(=O)[C@@H](CC(C)C)NC(=O)[C@@H](CCC(=O)O)NC(=O)[C@@H](CC(N)=O)NC(=O)[C@@H](CC(C)C)NC(=O)[C@@H](CC(C)C)NC(=O)[C@@H](CCC(=O)O)NC(=O)[C@@H](CCCNC(=N)N)NC(=O)[C@@H](Cc1ccccc1)NC(=O)[C@@H](CC(C)C)NC(=O)[C@@H](CC(=O)O)NC(=O)[C@@H](CC(C)C)NC(=O)[C@H](NC(=O)[C@H]1CCCN1)C(C)C)C(=O)N[C@H](CCCCN)C(=O)N[C@H](CCC(N)=O)C(=O)N[C@H](CCCCN)C(=O)N[C@H](CC(C)C)C(=O)N[C@H](CCCCN)C(=O)O [compound 100, pvldlfrellnellealkqklk] | 98 | 83 | – | 92 | 2 |
| CC(C)C[C@H](NC(=O)[C@H](C)NC(=O)[C@H](CCC(=O)O)NC(=O)[C@H](CC(C)C)NC(=O)C(C)(C)NC(=O)[C@H](CCC(=O)O)NC(=O)[C@H](CC(N)=O)NC(=O)[C@H](CC(C)C)NC(=O)[C@H](CCCCN)NC(=O)[C@H](CCC(=O)O)NC(=O)[C@H](CCCNC(=N)N)NC(=O)[C@H](Cc1ccccc1)NC(=O)[C@H](CCC(=O)O)NC(=O)[C@H](CC(=O)O)NC(=O)[C@H](CC(C)C)NC(=O)[C@@H](NC(=O)[C@@H]1CCCN1)C(C)C)C(=O)N[C@@H](CCCCN)C(=O)N[C@@H](CCC(N)=O)C(=O)N[C@@H](CCCCN)C(=O)N[C@@H](CC(C)C)C(=O)N[C@@H](CCCCN)C(=O)O [compound 45, PVLDEFREKLNEXLEALKQKLK] (H-PVLDEFREKLNE[Aib]LEALKQKLK-OH) | 86 | 24 | 25 | 84 | 24 |
| DWLKAFYDKVAEKLKEAF [peptide 244, reference compound] | 48 | 9 | 13 | 40 | 5 |
| Ac-EWLKAFYEKVLEKLKELF-NH2 [peptide 238, reference compound] | 58 | 49 | 60 | 72 | 19 |
| CC(C)C[C@H](NC(=O)[C@H](C)NC(=O)[C@H](CC(=O)O)NC(=O)[C@H](CC(C)C)NC(=O)[C@H](CC(C)C)NC(=O)[C@H](CCCNC(=N)N)NC(=O)[C@H](CCC(=O)O)NC(=O)[C@H](CC(C)C)NC(=O)[C@H](CC(C)C)NC(=O)[C@H](CC(N)=O)NC(=O)[C@H](CCC(=O)O)NC(=O)[C@H](Cc1ccccc1)NC(=O)[C@H](CC(C)C)NC(=O)[C@H](CCC(=O)O)NC(=O)[C@H](CC(C)C)NC(=O)[C@@H](NC(=O)[C@H]1CCCN1)C(C)C)C(=O)N[C@@H](CCC(N)=O)C(=O)N[C@@H](CCCCN)C(=O)N[C@@H](CCCCN)C(=O)N[C@@H](CC(C)C)C(=O)N[C@@H](CCCCN)C(=O)O [peptide 144] (H-[dP]VLELFENLLERLLDALQKKLK-OH) | 95 | 89 | – | 88 | 111 |

Other lines, results leading:

| He (%) TFE [1] [%] | He (%) free [1] [%] | He (%) SUVs [1] [%] | He (%) mics [1] [%] | ACTIVITY (%) LCAT [2] [%] | Compound |
| --- | --- | --- | --- | --- | --- |
| 55 | 21 | 29 | 49 | 1 | PLLNELLEALKQKLK [compound 104] |
| 85 | 30 | 58 | 86 | 23 | CC(C)C[C@H](NC(=O)[C@H](C)NC(=O)[C@H](CCC(=O)O)NC(=O)[C@H](CC(C)C)NC(=O)C(C)(C)NC(=O)[C@H](CCC(=O)O)NC(=O)[C@H](CC(N)=O)NC(=O)[C@H](CC(C)C)NC(=O)[C@H](CCCCN)NC(=O)[C@H](CCC(=O)O)NC(=O)[C@H](CCCNC(=N)N)NC(=O)[C@H](Cc1ccccc1)NC(=O)[C@H](CC(C)C)NC(=O)[C@H](CC(=O)O)NC(=O)[C@H](CC(C)C)NC(=O)[C@@H](NC(=O)[C@@H]1CCCN1)C(C)C)C(=O)N[C@@H](CCCCN)C(=O)N[C@@H](CCC(N)=O)C(=O)N[C@@H](CCCCN)C(=O)N[C@@H](CC(C)C)C(=O)N[C@@H](CCCCN)C(=O)O [compound 46, PVLDLFREKLNEXLEALKQKLK] (H-PVLDLFREKLNE[Aib]LEALKQKLK-OH) |
| 71 | 60 | 70 | 87 | 79 | CC(C)C[C@H](NC(=O)[C@H](CCCCN)NC(=O)[C@H](CCC(N)=O)NC(=O)[C@H](CCCCN)NC(=O)[C@H](Cc1cccc2ccccc12)NC(=O)[C@H](C)NC(=O)[C@H](CCC(=O)O)NC(=O)[C@H](CC(C)C)NC(=O)[C@H](CC(C)C)NC(=O)[C@H](CCC(=O)O)NC(=O)[C@H](CC(N)=O)NC(=O)[C@H](CC(C)C)NC(=O)[C@H](CC(C)C)NC(=O)[C@H](CCC(=O)O)NC(=O)[C@H](CCCNC(=N)N)NC(=O)[C@H](Cc1ccccc1)NC(=O)[C@H](CC(C)C)NC(=O)[C@H](CC(=O)O)NC(=O)[C@H](CC(C)C)NC(=O)[C@@H](NC(=O)[C@@H]1CCCN1)C(C)C)C(=O)N[C@@H](CCCCN)C(=O)O [peptide 10, PVLDLFRELLNELLEAZKQKLK] (H-PVLDLFRELLNELLEA[1Nal]KQKLK-OH) |
